Results reported in patent publication US20220257774A1, “AROMATIC AMINE AR AHD BET TARGETING PROTEIN DEGRADATION CHIMERA COMPOUND AND USE” (HINOVA PHARMACEUTICALS INC., priority 2019, published 2022).
Where two headings read alike, the source gives them in different places.

Legend:
Type in all cases: cell-based
BRD4 = target: T1, BRD4 (Homo sapiens, UniProt O60885); assay: Down-regulation/degradation of BRD4 determined by Western blot in CWR22RV1 cells; settings: concentration 100 nM, 24 h
T1 construct: CWR22RV1 cells were subcultured in cell culture media; endogenous in cells; host or cells: CWR22RV1 cells
Procedure: (§1) The Down-Regulation on the Protein Expression of Androgen Receptors AR and Brd4 Determined by Western Blot CWR22RV1 cells (National Collection of Authenticated Cell Cultures. TCHu100) FBS (Gibco, Cat. No. 10099-141) 0.01M PBS (Biosharp. Cat. No. 162262) RIPM1640 (Hyclone, Cat. No. 308090.01) Penicillin-Streptomycin (Hyclone. Cat. No. SV30010) DMSO (Sigma. Cat. No. D5879) Centrifuge tube, 15 ml (Excell Bio. Cat. No. CS015-0001) Cell culture plate (Excell Bio. Cat. No. CS016-0128) 6-well cell culture cluster (Corning, Cat. No. 3516) RIPA lysate buffer (Beyotime, Cat. No. P0013B) Protein loading buffer (Beyotime, Cat. No. P0015L) CA protein assay kit (Beyotime, Cat. No. P0012) SDS-PAGE gel preparation kit (Chengdu Baihe Technology Co., Ltd. Cat. No. PG112) Anti-β-tubulin mouse mAb (Zen Bioscience, Cat. No. 200608) Androgen Receptor ([…]) XP Rabbit mAb (CST. Cat. No. 5153) Anti-cMyc(D3N8F) Rabbit mAb (CST. Cat. No. 13987) Anti-BRD4(E2A7X) rabbit mAb (CST, Cat. No. 13440) Peroxidase Affinipure(HRP) Goat Anti-Mouse IgG (Zen Bioscience, Cat. No. 511103) Peroxidase Affinipure(HRP) Goat Anti-Rabbit IgG (Zen Bioscience, Cat. No. 511203) TBST (Biosharp. Cat. No. B[…]) ECL chemiluminescence kit (Beyotime, Cat. No. […]1 cells were subcultured in cell culture media, and then the cells in good growth condition were seeded in a 6-well plate at 2 ml/well (1×10^6 cells/well), and cultured overnight in a 37° C., 5% CO2 cell incubator. 2) The drug was prepared as a 10 mM stock solution with dimethyl sulfoxide (DMSO). […] The plate was gently tapped to thoroughly mix. In addition, the experiment included negative control wells (containing equal amount of DMSO) and positive control wells. 3) After culturing 24 hi, the cells were lysed with RIPA cell lysate, and the protein was extracted. […] The first antibody (Androgen Receptor ([…]) XP Rabbit mAb. Anti-cMyc(D3N8F) Rabbit mAb, Anti-BRD4(E2A7X) rabbit mAb and Anti-β-Tubulin Mouse mAb) was added and incubated overnight at 4° C. The membrane was rinsed with TBST solution three times, 10 min for each time. The secondary antibody (horseradish peroxidase labeled goat anti mouse IgG) was added and incubated at room temperature for 2 h, and then the membrane was washed with TBST solution three times, 10 m for each time. Finally. ECL chemiluminescence solution was added, and then photos were taken with automatic chemiluminescence instrument to collect pictures for analysis.

LNCaP/AR cells = assay: Inhibition of the proliferation of LNCap/AR cells (CCK-8); settings: read-out: LNCap/AR IC50
Summary of the method: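 Proliferation was read by CCK-8 (OD 450 nm, 1 h) after six days of compound exposure. Cells were seeded at 1000 per well overnight, then dosed in duplicate over nine 3-fold steps with a top final concentration of 10 μM in 0.1% DMSO; IC50 was fitted from inhibition curves.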

Androgen receptor (AR) = assay: Down-regulation/degradation of AR determined by Western blot in CWR22RV1 cells; settings: concentration 100 nM, 24 h
Procedure: as §1

22RV1 cells = assay: Inhibition of the proliferation of drug-resistant prostate cancer cell 22RV1 (CCK-8); settings: 22RV1 cells (enzalutamide-resistant), same method
Summary of the method: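 22RV1 cells, 1000/well in RPMI1640 with 10% FBS, treated in duplicate with 9-point 3-fold dilutions from 10 μM (0.1% DMSO final). After 6 days at 37 °C, CCK-8 added for 1 h and OD450 read. IC50 from dose-response inhibition fit.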

[1] = 144 h, LNCaP/AR cells, 6 days culture, CCK-8

Structure (SMILES)	BRD4 (% degradation) (BRD4)	IC50 (LNCaP/AR cells; [1]) [nM]	AR (% degradation) (Androgen receptor (AR))	IC50 (22RV1 cells; Homo sapiens) [nM]	IC50 (LNCaP/AR cells; LNCaP/AR cells, 6 days culture, CCK-8) [nM]	IC50 (22RV1 cells) [nM]	IC50 (LNCaP/AR cells; LNCaP/AR, 144 h) [nM]
Cc1ccc(-c2c(C)noc2C)cc1N(CCOC1(C)CN(c2cc3c(cc2F)C(=O)N(C2CCC(=O)NC2=O)C3)C1)c1ccc(C2(C#N)CC2)cc1 (stereo not shown) [Compound 113, 1-(4-((5-(3,5-Dimethylisoxazol-4-yl)-2-methylphenyl)(2-((1-(2-(2,6-dioxopiperidin-3-yl)-6-fluoro-1-oxoisoindolin-5-yl)-3-methylazetidin-3-yl)oxy)ethyl)amino)phenyl)cyclopropanecarbonitrile]	C (49%-20% of the target protein was degraded)	501 to 2000	D (<20% of the target protein was degraded)	501 to 2000			
Cc1ccc(-c2c(C)noc2C)cc1N(CC(C)OC1CN(c2ccc3c(c2)C(=O)N(C2CCC(=O)NC2=O)C3=O)C1)c1ccc(C2(C#N)CC2)cc1 (stereo not shown) [Compound 174, 1-(4-((5-(3,5-Dimethylisoxazol-4-yl)-2-methylphenyl)(2-((1-(2-(2,6-dioxopiperidin-3-yl)-1,3-dioxoisoindolin-5-yl)azacyclobutane-3-yl)oxy)propyl)amino)phenyl)cyclopropane-1-nitrile]	D (<20% of the target protein was degraded)	501 to 2000	D (<20% of the target protein was degraded)	< 100			
Cc1ccc(-c2c(C)noc2C)cc1N(CCOC1(C)CN(c2cc3c(cc2F)C(=O)N(C2CCC(=O)NC2=O)C3=O)C1)c1ccc(C2(C#N)CC2)cc1 (stereo not shown) [Compound 111, 1-(4-((5-(3,5-Dimethylisoxazol-4-yl)-2-methylphenyl)(2-((1-(2-(2,6-dioxopiperidin-3-yl)-6-fluoro-1,3-dioxoisoindolin-5-yl)-3-methylazetidin-3-yl)oxy)ethyl)amino)phenyl)cyclopropanecarbonitrile]	D (<20% of the target protein was degraded)	> 2000	D (<20% of the target protein was degraded)	101 to 500			
Cc1ccc(-c2c(C)noc2C)cc1N(c1ccc(C2(C#N)CC2)cc1)C1CN([C@H]2C[C@H](Nc3cc4c(cc3F)CN([C@@H]3CCC(=O)NC3=O)C4=O)C2)C1 [Compound 70]	C (49%-20% of the target protein was degraded)		C (49%-20% of the target protein was degraded)		501 to 2000	< 100	
Cc1ccc(-c2c(C)noc2C)cc1N(CC1CC(Nc2cc3c(cc2F)C(=O)N(C2CCC(=O)NC2=O)C3=O)C1)c1ccc(C2(C#N)CC2)cc1 (stereo not shown) [Compound 37]	D (<20% of the target protein was degraded)	501 to 2000	D (<20% of the target protein was degraded)	101 to 500			
Cc1ccc(-c2c(C)noc2C)cc1N(CCCCCNc1ccc2c(c1)CN(C1CCC(=O)NC1=O)C2=O)c1ccc(C#N)c(Cl)c1 (stereo not shown) [Compound 63, 2-chloro-4-((5-(3,5-dimethylisoxazol-4-yl)-2-methylphenyl)(5-((2-(2,6-dioxopiperidin-3-yl)-1-oxoisoindolin-5-yl)amino)pentyl)amino)benzonitrile]	C (49%-20% of the target protein was degraded)		C (49%-20% of the target protein was degraded)	< 100			< 100
Cc1ccc(-c2c(C)noc2C)cc1N(CCCOC1CN(c2cc3c(cc2F)C(=O)N(C2CCC(=O)NC2=O)C3=O)C1)c1ccc(C2(C#N)CC2)cc1 (stereo not shown) [Compound 120, 1-(4-((5-(3,5-dimethylisoxazol-4-yl)-2-methylphenyl)(3-((1-(2-(2,6-dioxopiperidin-3-yl)-6-fluoro-1,3-dioxoisoindol-5-yl)azetidin-3-yl)oxy)propyl)amino)phenyl)cyclopropane-1-carbonitrile]	B (79%-50% of the target protein was degraded)	101 to 500	D (<20% of the target protein was degraded)	< 100			
